# According to patent US20220016023A1, “METHOD FOR TREATING MYOPIA AND APPLICATION IN PREPARATION OF MEDICAMENT” (WENZHOU MEDICAL UNIVERSITY, priority 2018, published 2022):
# Read-outs that look alike come from different tables or passages of the source.
# Tested on: form deprivation myopia
# Details: for difference of binocular refractions / difference of binocular axial lengths: 2 weeks after form deprivation, p<0.01; for difference of binocular axial lengths: vehicle 0.17±0.05
SMILES,"difference of binocular refractions (FDM+NA (0.1 mg), FDM+Vehicle −5.43±1.69, FIG. 5A) [D]","difference of binocular axial lengths (FDM+NA (0.1 mg), FIG. 5B) [mm]","choroidal blood flow, fellow eye vs. test eye (after periocular injection of 0.1 mg nicotinic acid, 2 weeks form deprivation, FIG. 5C)","difference of binocular refractions (FDM+Pr (10 μM), FDM+Vehicle −5.98±2.22, FIG. 6A) [D]","difference of binocular axial lengths (FDM+Pr (10 μM), FIG. 6B) [mm]"
O=C(O)c1cccnc1 [nicotinic acid],−3.43±1.80,0.10±0.06,no statistical difference between two eyes,–,–
COc1cc2nc(N3CCN(C(=O)c4ccco4)CC3)nc(N)c2cc1OC [prazosin],–,–,–,−3.26±2.22,0.10±0.06
